How the values were obtained:
[1] = Pharmacokinetics of orally administered squalamine (ENT-01) in Stage 1; type: in vivo, human; details: PD patients, this study
Description: PK data were collected on the 10 patients enrolled in Stage 1 and 10 patients enrolled in Stage 2 to determine the extent of systemic absorption. In Stage 1, PK data were obtained at each visit, pre-medication, at 1, 2, 4, 8 and 24 hours (Table 10). In Stage 2, PK was measured on days 1 and 6 of the randomization period pre-medication, at 1, 2, 4 and 8 hours (Table 11).
The mean Cmax, Tmax and T1/2 and AUC of the squalamine ion following squalamine (ENT-01) oral dosing for Stage 1 patients. The PK analyses are only approximate, as the lower limit of the validated concentration range was 10 ng/ml; most of the measured concentrations fell below that value. The mean Cmax, Tmax and T1/2 and AUC of the squalamine ion following squalamine (ENT-01) oral dosing for Stage 2 patients. The PK analyses are only approximate, as the lower limit of the validated concentration range was 0.5 ng/ml.

[2] = system: mice with constipation due to overexpression of human αS; details: oral; cited from earlier work
[3] = system: IPANs (intrinsic primary afferent neuron); details: perfusion through lumen of isolated bowel segment; cited from earlier work
[4] = mice, following systemic administration; into the duodenum through the biliary tract; cited from earlier work
[5] = cited from earlier work

In the case of `CC(C)[C@@H](CC[C@@H](C)[C@H]1CC[C@H]2[C@@H]3[C@H](O)C[C@H]4C[C@@H](NCCCNCCCCN)CC[C@]4(C)[C@H]3CC[C@]12C)OS(=O)(=O)O` [squalamine], the “systemic absorption following oral administration” value [1] is given as “not significantly absorbed into the systemic circulation”, the “effect on gastro-intestinal motility” value [2] is given as “stimulates gastro-intestinal motility” and the “effect on propulsive peristaltic contractions” value [3] is given as “increasing the frequency of propulsive peristaltic contractions”. For the same molecule, the route of clearance [4] was “cleared by the liver and excreted as the intact molecule”, the “drug related GI toxicology” value ([5]; published clinical trials involving systemic administration) was “has not been reported” and the “effect of intravenous administration on gastrointestinal motility” value ([5]; systemic blood levels one thousand-fold greater than after oral dosing, prior studies) was “not associated with increased gastrointestinal motility”.

Reference: US20200129528A1, “METHODS FOR TREATING BLOOD PRESSURE CONDITIONS USING AMINOSTEROL COMPOSITIONS” (Enterin, Inc., priority 2018, published 2020)
